The supplement of paper PMC4862054
“And” between values parts separate entries of the source, which are not always exact repeats. Equal entries are not always repeated.

Assays:
Conditions in all cases: incubation time: 72 h
MDA-MB-468 = test: normalised response (% of control), CellTiter-Glo; higher = more viable cells (100 = DMSO, 0 = benzethonium chloride kill control)
Method: (§1)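 DSRT, 72 h incubation, CellTox Green / CellTiter-Glo readout. Signal is normalised to DMSO and benzethonium chloride controls. Value is the normalised response at the highest dose.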

MCF-10A = test: as above
Method: as §1

BT-549 = test: as above
Method: as §1

CAL-120 = test: as above
Method: as §1

Hs578T = test: as above
Method: as §1

HCC1143 = test: as above
Method: as §1

SK-BR-3 = test: as above
Method: as §1

HCC1599 = test: as above
Method: as §1

CAL-85-1 = test: as above
Method: as §1

CAL-148 [1] = test: as above
Method: as §1

HDQ-P1 = test: as above
Method: as §1

CAL-51 = test: as above
Method: as §1

BT-474 = test: as above
Method: as §1

MFM-223 = test: as above
Method: as §1

MDA-MB-453 [2] = test: as above
Method: as §1

DU-4475 = test: as above
Method: as §1

MDA-MB-436 = test: as above
Method: as §1

MDA-MB-231 = test: as above
Method: as §1

HCC1937 = test: as above
Method: as §1

CAL-148 [3] = test: normalised viability (% of control), CellTiter-Blue; higher = more viable cells (about 100 = DMSO control)
Method: (§2)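 DSRT, CellTiter-Blue viability, 72 h incubation. Signal is normalised to DMSO and benzethonium chloride controls. Value is the normalised response at dose 9.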

MDA-MB-453 [4] = test: as above
Method: as §2

SMILES | normalised response (MDA-MB-468) [%] | normalised response (MCF-10A) [%] | normalised response (BT-549) [%] | normalised response (CAL-120) [%] | normalised response (Hs578T) [%] | normalised response (HCC1143) [%] | normalised response (SK-BR-3) [%] | normalised response (HCC1599) [%] | normalised response (CAL-85-1) [%] | normalised response (CAL-148 [1]) [%] | normalised response (HDQ-P1) [%] | normalised response (CAL-51) [%] | normalised response (BT-474) [%] | normalised response (MFM-223) [%] | normalised response (MDA-MB-453 [2]) [%] | normalised response (DU-4475) [%] | normalised response (MDA-MB-436) [%] | normalised response (MDA-MB-231) [%] | normalised response (HCC1937) [%] | normalised viability (CAL-148 [3]) | normalised viability (MDA-MB-453 [4])
O=C(CCBr)N1CCN(C(=O)CCBr)CC1 [Pipobroman] (10000 nM) | 100 | 104 | 101 | 95.8 | 103 | 103 | 108 | 99 | 98.2 | 101 | 107 | 86.5 | 94.7 | 103 | 110 | 101 | 95 | 101 | 98.2 | 84.8% | 7.05%
CO[C@@H](C(=O)N1Cc2[nH]nc(NC(=O)c3ccc(N4CCN(C)CC4)cc3)c2C1)c1ccccc1 [Danusertib] (10000 nM) | 50.1 | 17 | 14.7 | 22.1 | 46.1 | 47.1 | 85.6 | 78.5 | 67.8 | 94.9 | 44.2 | 31.1 | 55.5 | 45.6 | 95 | 37.3 | 57.5 | 42.7 | 85.3 | 69.4% | 31.3%
C[C@]12C=CC(=O)C=C1CC[C@@H]1[C@@H]2[C@@H](O)C[C@@]2(C)[C@H]1CC[C@]2(O)C(=O)CO [Prednisolone] (10000 nM) | 113 | 96.4 | 99 | 76.9 | 109 | 112 | 96.7 | 102 | 118 | 111 | 84.7 | 88.8 | 144 | 101 | 94.9 | 104 | 104 | 151 | 101 | 99.2% | 79.8%
CCC/C=C/C=C/C(=O)O[C@H]1/C(=C/C(=O)OC)C[C@H]2C[C@H]([C@@H](C)O)OC(=O)C[C@H](O)C[C@@H]3C[C@H](OC(C)=O)C(C)(C)[C@](O)(C[C@@H]4C/C(=C/C(=O)OC)C[C@H](/C=C/C(C)(C)[C@]1(O)O2)O4)O3 [Bryostatin 1] (100 nM) | 98.3 | 95.7 | 87.9 | 104 | 88.6 | 94.1 | 73.6 | 86.4 | 98.5 | 107 | 81.5 | 96.5 | 81.2 | 104 | 103 | 97.4 | 111 | 93.1 | 98.6 | 67.6% | 102%
Nc1ccccc1NC(=O)c1ccc(CNc2nccc(-c3cccnc3)n2)cc1 [Mocetinostat] (10000 nM) | 5.88 | 54.1 | 27.1 | 32 | 29 | 24.9 | 1.68 | 17.1 | 6.94 | 12.2 | 38.2 | 18.3 | 16.9 | 36.7 | 9.77 | 4.3 | 31.8 | 21.7 | 49.8 | 10% | 11.9%
CNC(=O)c1cc(Oc2ccc(NC(=O)Nc3ccc(Cl)c(C(F)(F)F)c3)cc2)ccn1 [Sorafenib] (1000 nM) | 112 | 118 | 102 | 112 | 96 | 106 | 96.9 | 94.1 | 108 | 113 | 99.3 | 146 | 102 | 78.6 | 92.4 | 98.3 | 120 | 108 | 102 | 96.7% and 105% | 81% and 96.6%
Cc1nc(Nc2ncc(C(=O)Nc3c(C)cccc3Cl)s2)cc(N2CCN(CCO)CC2)n1 [Dasatinib] (1000 nM) | 73.1 | 24.3 | 55.3 | 48.6 | 31.9 | 60.3 | 97.1 | 97.7 | 35.8 | 103 | 27.1 | 47.9 | 45.7 | 80.9 | 80.5 | 95.5 | 91.9 | 34.1 | 55.2 | 112% and 97.6% | 84.2% and 84.5%
O=C1c2c(O)ccc(O)c2C(=O)c2c(NCCNCCO)ccc(NCCNCCO)c21 [Mitoxantrone] (1000 nM) | 59.4 | 74.2 | 73.6 | 91.2 | 89.4 | 73.9 | 56.2 | 85.2 | 73.9 | 40.4 | 85 | 49 | 79.3 | 100 | 129 | 49.5 | 40.4 | 82.9 | 87.4 | 7.8% | 31%
COc1cc(CCc2cc(NC(=O)c3ccc(N4CC(C)NC(C)C4)cc3)n[nH]2)cc(OC)c1 (configuration not stated) [AZD4547] (1000 nM) | 104 | 74.9 | 88.7 | 68.2 | 87.6 | 96.5 | 89.6 | 80.9 | 105 | 93 | 93.7 | 108 | 99.6 | 53.3 | 85 | 94 | 98 | 103 | 95.8 | 11.9% | 8.97%
CC[C@@]1(O)C(=O)OCc2c1cc1n(c2=O)Cc2cc3c(CN(C)C)c(O)ccc3nc2-1 [Topotecan] (1000 nM) | – | – | – | – | – | – | – | – | – | – | – | – | – | – | – | – | – | – | – | 13.8% | 44.6%
COc1ccc(-c2cc3c(C)nc(N)nc3n([C@H]3CC[C@H](OCCO)CC3)c2=O)cn1 (10000 nM) | 4.65 | 7.97 | 8.65 | 26.1 | 5.22 | 7.29 | 18.6 | 44 | 4.45 | 4.36 | 10.8 | 0.68 | 23.9 | 13 | 3.84 | 0.26 | 37.1 | 9.59 | 8.02 | 1.46% | 2.5%
C[C@]12O[C@H](C[C@]1(O)CO)n1c3ccccc3c3c4c(c5c6ccccc6n2c5c31)CNC4=O [Lestaurtinib] (1000 nM) | 35.6 | 28.5 | 30.3 | 49.5 | 61.4 | 71.9 | 29.1 | 24.3 | 32.5 | 99.6 | 61.6 | 91.1 | 56.8 | 46.4 | 79 | 5.65 | 44.7 | 54.5 | 56 | 90.9% | 28.9%
COc1nc(N)nc2c1ncn2[C@@H]1O[C@H](CO)[C@@H](O)[C@@H]1O [Nelarabine] (10000 nM) | 87.1 | 86.2 | 95.8 | 98.6 | 90.5 | 94.9 | 76.6 | 117 | 103 | 78.7 | 91.6 | 143 | 87 | 89.5 | 81.3 | 97.8 | 90.1 | 94.3 | 91.7 | 106% and 96.7% | 84.5% and 97.5%
O=C(Nc1c[nH]nc1-c1nc2ccc(CN3CCOCC3)cc2[nH]1)NC1CC1 [AT9283] (1000 nM) | 31.1 | 46.2 | 27.8 | 46.9 | 54.8 | 60.8 | 70.8 | 74.4 | 59.6 | 86.1 | 50.8 | 83 | 58.6 | 75.5 | 185 | 72.4 | 99.5 | 42.4 | 73.7 | – | –
Cc1c(CN2CCN(C(=O)[C@H](C)O)CC2)sc2c(N3CCOCC3)nc(-c3cnc(N)nc3)nc12 [GDC-0980] (10000 nM) | 17.8 | 17.8 | 19 | 23.2 | 20.3 | 20.7 | 19.2 | 66.2 | 18.2 | 10 | 10.6 | 8.48 | 47.6 | 26.2 | 9.21 | 15.7 | 43.1 | 34.3 | 29.5 | 3.74% | 3.22%
CCN(CC)CCNC(=O)c1c(C)[nH]c(/C=C2\C(=O)Nc3ccc(F)cc32)c1C [Sunitinib] (1000 nM) | 107 | 66.3 | 108 | 82.6 | 97.5 | 103 | 105 | 105 | 107 | 113 | 86.1 | 109 | 98.9 | 81.8 | 97.3 | 94.2 | 93.7 | 102 | 91.7 | 107% and 117% | 89.9% and 93.9%
Cc1ccc(Nc2nccc(N(C)c3ccc4c(C)n(C)nc4c3)n2)cc1S(N)(=O)=O [Pazopanib] (10000 nM) | 83.3 | 102 | 48.1 | 89.4 | 88.5 | 97.2 | 105 | 94.9 | 103 | 106 | 98.1 | 67.5 | 91.4 | 55.8 | 91.8 | 104 | 106 | 102 | 102 | 79.5% | 62.2%
Nc1cccc2c1CN(C1CCC(=O)NC1=O)C2=O (configuration not stated) [Lenalidomide] (10000 nM) | 107 | 102 | 98 | 93.6 | 98.1 | 95.3 | 98.5 | 103 | 103 | 104 | 93.6 | 114 | 94 | 100 | 102 | 99.3 | 91.3 | 103 | 102 | 86.1% and 106% | 94.2% and 92.1%
